Read-outs that look alike come from different tables or passages of the source.
What was measured:
[1] = tested on: Plasmodium falciparum strain NF54 (chloroquine-sensitive), erythrocytic stages; assay: Antiplasmodial 3H-hypoxanthine incorporation assay; format: cell-based; conditions: for IC50: Plasmodium falciparum
Procedure: The assessment of antiplasmodial activity in vitro was evaluated against the erythrocytic stages of chloroquine-sensitive Plasmodium falciparum strain NF54 using a ^3H-hypoxanthine incorporation assay previously described, of which the […] NF54 strain originated from South Africa, and the standard drug chloroquine was obtained from Sigma-Aldrich (St. Louis, MO, USA). Compounds were dissolved in DMSO at 10 μg/mL and added to parasite cultures incubated in RPMI 1640 medium without hypoxanthine, supplemented with HEPES (5.94 g/L), NaHCO3 (2.1 g/L), neomycin (100 U/mL), Albumax, and washed human red cells A^+ at 2.5% hematocrit (0.3% parasitemia). Serial sample dilutions of […] dilution steps covering a range from 100 to 0.002 μg/mL were prepared. The 96-well plates were incubated in a humidified atmosphere at 37 °C; 4% CO2; 3% O2 and 93% N2. After 48 h, 50 μL of ^3H-hypoxanthine (0.5 μCi) was added to each well.

[2] = biological target: T1, HIV-1 integrase (purified recombinant HIV-1 subtype C IN) (Human immunodeficiency virus type 1 group M subtype C, UniProt Q75002); assay: HIV-1 Integrase strand transfer inhibition assay; format: biochemical
T1 construct: Recombinant HIV-1 subtype CIN was assembled on to the pre-processed donor DNA
Procedure: The HIV-1 Integrase strand transfer inhibition assay was adapted from previously described methods. […] Following incubation at room temperature for 40 min and a stringent wash step, 5 µg/mL purified recombinant HIV-1 subtype CIN in integrase buffer 1 ([…] to ethanol, 50 µg/mL BSA, pH 7.5) was added to individual wells. […] Recombinant HIV-1 subtype CIN was assembled on to the pre-processed donor DNA through incubation for 45 min at room temperature. Strand transfer reaction was initiated through the addition of 10 µM (final concentration) double-stranded FITC-labelled target DNA (5′-[…]/36-FAM/-3′) annealed to (5′-[…]-/36-FAM/-3′) in integrase buffer 2 (same as buffer 1, except 25 µM MnCl2 was replaced with 2.5 µM MgCl2). After an incubation period of 60 min at 37 °C, the plates were washed using PBS containing 0.05% Tween 20 and 0.01% BSA, followed by the addition of peroxidase-conjugated sheep anti-FITC antibody (Thermo Scientific, Waltham, MA, USA) diluted 1:1000 in the same PBS buffer. Finally, the plates were washed and peroxidase substrate (Sure Blue Reserve™, KPL, Gaithersburg, MD, USA) was added to allow for detection at 620 nm using a Synergy MX (BioTek®) plate reader. Absorbance values were converted to % enzyme activity relative to the readings obtained from the control wells (enzyme without inhibitor).

[3] = chloroquine-sensitive P. falciparum NF54, mean ± SD, '-' in Table 3 = no activity, read-out: NF54: IC50 (antiplasmodial activity)
[4] = chloroquine-sensitive P. falciparum NF54, mean ± SD, '-' in Table 3 = no activity
[5] = mean ± SD; '-' in Table 2 = no inhibition detected; read-out: Assembly IC50 (anti-HIV-1 integrase activity)
[6] = mean ± SD; '-' in Table 2 = no inhibition detected

T1 sequence (Q75002 1152-1439): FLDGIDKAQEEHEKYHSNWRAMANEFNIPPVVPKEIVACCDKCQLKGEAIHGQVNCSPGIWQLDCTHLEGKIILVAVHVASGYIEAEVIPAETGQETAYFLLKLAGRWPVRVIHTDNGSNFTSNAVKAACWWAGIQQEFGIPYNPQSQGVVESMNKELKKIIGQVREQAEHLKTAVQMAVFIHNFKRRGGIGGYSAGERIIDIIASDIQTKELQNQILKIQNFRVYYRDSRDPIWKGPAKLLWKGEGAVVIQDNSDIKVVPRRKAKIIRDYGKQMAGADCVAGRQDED

Compound | IC50 [1, 3] | IC50 ([1]; NF54, read-out: NF54: IC50 (antiplasmodial activity)) | NF54: IC50 (antiplasmodial activity) [1, 4] | IC50 ([2]; read-out: Assembly IC50 (anti-HIV-1 integrase activity)) | IC50 [2, 5] | Assembly IC50 (anti-HIV-1 integrase activity) [2, 6] | IC50 ([2]; read-out: Assembly IC50 (anti-HIV-1 integrase activity); mean ± SD; '-' in Table 2 = no inhibition detected)
C[C@H]1[C@H](OC(=O)CCC(=O)O)O[C@@H]2O[C@@]3(C)CC[C@H]4[C@H](C)CC[C@@H]1[C@@]24OO3 [Artesumate, reference compound] | 0.002 µM |  |  |  |  |  | 
CCN(CC)CCCC(C)Nc1ccnc2cc(Cl)ccc12 (centres unmarked) [Chloroquine, reference compound] |  | 0.006 ± 0.002 µM |  |  |  |  | 
O=C(c1ccc(O)cc1O)[C@@H](c1coc2cc(O)ccc2c1=O)C(c1ccc(O)cc1)c1ccc(O)cc1 [Compound 1] | > 190 µM |  | no activity | 0.047 ± 0.021 µM |  |  | 
COc1ccc(C(c2ccc(OC)cc2)[C@@H](C(=O)c2ccc(OC)cc2O)c2coc3cc(OC)ccc3c2=O)cc1 [Compound 2, (R)-3-(1-(2′-hydroxy-4′-methoxyphenyl)-3,3-bis(4″,4‴-dimethoxyphenyl)-1-oxopropan-2-yl)-4-methoxychromenone] | 4.6 ± 6.09 µM |  |  |  | > 20 µM |  | 
COc1ccc(C(c2ccc(O)cc2)[C@@H](C(=O)c2ccc(O)cc2O)c2coc3cc(OC)ccc3c2=O)cc1 (stereo partly drawn) [Compound 3, (R)-3-(1-(2′,4′-dihydroxyphenyl)-3,3-bis(4″-hydroxy-4‴-methoxyphenyl)-1-oxopropan-2-yl)-4 methoxychromenone] | 7.86 ± 5.12 µM |  |  |  |  | no inhibition detected | > 20 µM
COc1ccc(C(c2ccc(O)cc2)[C@@H](C(=O)c2ccc(O)cc2O)c2coc3cc(O)ccc3c2=O)cc1 (some centres unmarked) [Compound 4, schweinfurthianone A] | 8.2 ± 0.93 µM |  |  |  | > 20 µM | no inhibition detected | 
COc1ccc(C(c2ccc(O)cc2)[C@@H](C(=O)c2ccc(OC)cc2O)c2coc3cc(OC)ccc3c2=O)cc1 (some centres unmarked) [Compound 5, shweinfurthianone B] | 5.11 ± 13.7 µM |  |  |  | > 20 µM | no inhibition detected | 
O=C(/C=C/c1ccc(O)cc1)c1c(O)cc(O)c2c(C(=O)c3ccc(O)cc3O)c(-c3ccc(O)cc3)oc12 [Compound 6, calodenine B] | > 190 µM |  | no activity |  | > 20 µM | no inhibition detected | 
COc1cc(-c2coc3cc(O)cc(OC)c3c2=O)ccc1O [Compound 7, 4′,7-dihydroxy-3′,5-dimethoxyisoflavone] | > 190 µM |  | no activity |  | > 20 µM |  | 

— paper PMC9414862, “In Vitro and In Silico Potential Inhibitory Effects of New Biflavonoids from Ochna rhizomatosa on HIV-1 Integrase and Plasmodium falciparum” (Pharmaceutics, 2022)
